{"source": "patent US4440932A", "about": "“7β-Arylalkyl-7α-methyl-6-oxo or 6α-hydroxy-3-methoxy or 3-hydroxy-4,5α-epoxy-17-methyl or 17-cycloalkyl-methylmorphinans” (Miles Laboratories, Inc., priority 1982, dated 1984)", "note": "Where “and” joins values, the source holds several entries; their conditions need not be identical. Equal entries are not always repeated."}
{"test_system": "mice", "test": "acetic acid induced writhing test (analgesic effects in mice, subcutaneous)", "type": "in vivo, mice (male CD-1)", "settings": "Mus musculus, sc, acetic acid i.p. 15 min post drug, writhes counted over 20 min, read-out: ED50 (dose required to reduce the number of writhes by 50%)", "description": "Analgesic effects of the test compounds were determined in mice by use of the acetic acid induced writhing test described by B. A. Whittle, Brit. J. Pharmacol., 22:246 (1964). In this test, at least 3 groups of 5 male CD-1 mice each were given subcutaneous doses of the test drug dissolved in distilled water. In all cases, 0.4 ml of a 0.5% v/v acetic acid in distilled water solution was administered intraperitoneally 15 min. post drug. The number of writhes in a 20 min. interval beginning 5 min. after the acetic acid injection were determined and compared with the number of writhes in a control group which had received only acetic acid.\nPercent inhibition of writhing was calculated as: [formula]\nThe ED50 dose, i.e., the dose required to reduce the number of writhes by 50%, was determined graphically from a plot of % inhibition as a probit verus log dose. Confidence limits of 95% were calculated on the basis of those results falling in the range 16-84% inhibition. See Lichtfield, J. T. and Wilcoxon, F., J. Pharmacol. Exp. Ther., 96, 99-113 (1949)."}
{"smiles": "COc1ccc2c3c1O[C@H]1[C@@H](O)[C@](C)(CCCCc4ccccc4)C[C@H]4[C@@H](C2)N(CC2CCC2)CC[C@@]341", "note": "[BBf]", "ED50": "11.3 µmol/kg and 6.1 mg/kg"}
{"smiles": "COc1ccc2c3c1O[C@H]1C(=O)[C@](C)(CCCCc4ccccc4)C[C@H]4[C@@H](C2)N(CC2CCC2)CC[C@]314", "note": "[CBf]", "ED50": "5.6 µmol/kg and 2.8 mg/kg"}
{"smiles": "COc1ccc2c3c1O[C@H]1[C@@H](O)[C@](C)(CCCCc4ccccc4)C[C@H]4[C@@H](C2)N(C)CC[C@@]341", "note": "[BMf, 7α,17-Dimethyl-4,5α-epoxy-3-methoxy-7β-(4-phenylbutyl)morphinan-6α-ol]", "ED50": "0.049 µmol/kg and 0.023 mg/kg"}
{"smiles": "C[C@@]1(CCCCc2ccccc2)C[C@H]2[C@H]3Cc4ccc(O)c5c4[C@@]2(CCN3CC2CC2)[C@@H](O5)C1=O", "note": "[DPf]", "ED50": "0.11 µmol/kg and 0.07 mg/kg"}
{"smiles": "COc1ccc2c3c1O[C@H]1[C@@H](O)[C@](C)(CCCCc4ccccc4)C[C@H]4[C@@H](C2)N(CC2CC2)CC[C@@]341", "note": "[BPf]", "ED50": "0.5 µmol/kg and 0.26 mg/kg"}
{"smiles": "COc1ccc2c3c1O[C@H]1C(=O)[C@](C)(CCCCc4ccccc4)C[C@H]4[C@@H](C2)N(CC2CC2)CC[C@]314", "note": "[CPf]", "ED50": "2 µmol/kg and 1.1 mg/kg"}
{"smiles": "C[C@@]1(CCc2ccccc2)C[C@H]2[C@H]3Cc4ccc(O)c5c4[C@@]2(CCN3CC2CCC2)[C@@H](O5)C1=O", "note": "[DBd]", "ED50": "0.04 µmol/kg and 0.021 mg/kg"}
{"smiles": "COc1ccc2c3c1O[C@H]1C(=O)[C@](C)(CCCCc4ccccc4)C[C@H]4[C@@H](C2)N(C)CC[C@]314", "note": "[CMf, 7α,17-Dimethyl-4,5α-epoxy-3-methoxy-7β-(4-phenylbutyl)morphinan-6-one]", "ED50": "0.023 µmol/kg and 0.011 mg/kg"}
{"smiles": "CN1CC[C@]23c4c5ccc(O)c4O[C@H]2C(=O)[C@](C)(CCCCc2ccccc2)C[C@H]3[C@H]1C5", "note": "[DMf, 7α,17-Dimethyl-4,5α-epoxy-3-hydroxy-7β-(4-phenylbutyl)morphinan-6-one]", "ED50": "0.01 µmol/kg and 0.0048 mg/kg"}
{"smiles": "C[C@@]1(CCCCc2ccccc2)C[C@H]2[C@H]3Cc4ccc(O)c5c4[C@@]2(CCN3CC2CCC2)[C@@H](O5)C1=O", "note": "[DBf]", "ED50": "0.17 µmol/kg and 0.08 mg/kg"}
{"smiles": "COc1ccc2c3c1O[C@H]1C(=O)[C@](C)(CCc4ccccc4)C[C@H]4[C@@H](C2)N(CC2CCC2)CC[C@]314", "note": "[CBd]", "ED50": "0.01 µmol/kg and 0.011 mg/kg"}
{"smiles": "COc1ccc2c3c1O[C@H]1[C@@H](O)[C@](C)(CCc4ccccc4)C[C@H]4[C@@H](C2)N(CC2CCC2)CC[C@@]341", "note": "[BBd]", "ED50": "1 µmol/kg and 0.51 mg/kg"}
